Results taken from ChEMBL document CHEMBL5046293 (J Med Chem, 2022).

Legend:
[1] = Stability of compound in 0.01 M PBS buffer at 50 uM measured after 52 hrs by LC-MS analysis (reference value: 99.2 %); assay type: physicochemical; details: read-out: Stability
[2] = Stability of compound in 0.01 M PBS buffer at 50 uM measured after 4 hrs by LC-MS analysis (reference value: 99.2 %); assay type: physicochemical; details: read-out: Stability
[3] = Cytotoxicity against human BLEC monolayers at 50 uM incubated for 1 hr; assay type: toxicity, cell-based; details: brain-like endothelial cells
[4] = Stability of compound in 0.01 M PBS buffer at 50 uM measured after 52 hrs by LC-MS analysis (reference value: 98.7 %); assay type: physicochemical; details: read-out: Stability
[5] = Stability of compound in 0.01 M PBS buffer at 50 uM measured after 4 hrs by LC-MS analysis (reference value: 98.7 %); assay type: physicochemical; details: read-out: Stability

OC[C@H]1O[C@@H](OCCCCc2cn(CCCc3ccc(O)c(/C=N/O)n3)nn2)[C@H](O)[C@@H](O)[C@@H]1O
remaining at 52 h, 50 µM [1]: 90.9% | remaining at 4 h, 50 µM [2]: 96.7% | Activity [3]: Non-Toxic

C#CCCCCO[C@@H]1O[C@H](CO)[C@@H](O)[C@H](O)[C@H]1O
Activity [3]: Non-Toxic

OC[C@H]1O[C@@H](OCCCCCc2ccc(O)c(/C=N/O)n2)[C@H](O)[C@@H]1O
Activity [3]: Non-Toxic

C#CCCCCO[C@@H]1O[C@H](CO)[C@@H](O)[C@H]1O
Activity [3]: Non-Toxic

OC[C@H]1O[C@H](OCCCCc2cn(CCCCc3ccc(O)c(/C=N/O)n3)nn2)[C@H](O)[C@@H](O)[C@@H]1O
Activity [3]: Non-Toxic

OC[C@H]1O[C@@H](OCCCCc2cn(CCCCc3ccc(O)c(/C=N/O)n3)nn2)[C@H](O)[C@@H]1O
Activity [3]: Non-Toxic

OC[C@H]1O[C@@H](OCCCCc2ccc(O)c(/C=N/O)n2)[C@H](O)[C@@H](O)[C@@H]1O
Activity [3]: Non-Toxic

Cn1cc(CCCCO[C@H]2O[C@H](CO)[C@@H](O)[C@H](O)[C@H]2O)nn1
Activity [3]: Non-Toxic

OC[C@H]1O[C@@H](OCCCc2ccc(O)c(/C=N/O)n2)[C@H](O)[C@@H](O)[C@@H]1O
remaining at 52 h, 50 µM [4]: 91.4% | remaining at 4 h, 50 µM [5]: 97.8% | Activity [3]: Non-Toxic

Cn1cc(CCCCOC[C@H]2O[C@@H](O)[C@H](O)[C@@H](O)[C@@H]2O)nn1
Activity [3]: Non-Toxic

Cn1cc(CCCCO[C@@H]2O[C@H](CO)[C@@H](O)[C@H](O)[C@H]2O)nn1
Activity [3]: Non-Toxic

C#CCCO[C@@H]1O[C@H](CO)[C@@H](O)[C@H](O)[C@H]1O
Activity [3]: Non-Toxic

OC[C@H]1O[C@@H](OCCCCc2cn(CCCCc3ccc(O)c(/C=N/O)n3)nn2)[C@H](O)[C@@H](O)[C@@H]1O
Activity [3]: Non-Toxic

Cn1cc(CCCCO[C@@H]2O[C@H](CO)[C@@H](O)[C@H]2O)nn1
Activity [3]: Non-Toxic

Cn1cc(CCO[C@@H]2O[C@H](CO)[C@@H](O)[C@H](O)[C@H]2O)nn1
Activity [3]: Non-Toxic

C#CCCCCO[C@H]1O[C@H](CO)[C@@H](O)[C@H]1O
Activity [3]: Non-Toxic
